Results on nine compounds are retold here after ChEMBL document CHEMBL1773024, “New 29-nor-cycloartanes with a 3,4-seco- and a novel 2,3-seco-structure from the leaves of Sinocalycanthus chinensis” (Bioorg Med Chem, 2011).

The subject of test [1] is K562. Kind of test: Cytotoxicity against human doxorubicin-resistant K562 cells after 6 hrs by MTT assay. The class given is functional, cell-based. The settings on record: K562, 6 h. In general terms: Formazan colour is commonly taken as a measure of viable cells.
In the next test the test system is KB. Kind of test: Cytotoxicity against human KB cells after 48 hrs by MTT assay.
Test [2] can be described thus: Cytotoxicity against human KB-C2 cells after 48 hrs by MTT assay. The settings on record: KB-C2, 48 h.
Test [3] is described as follows: Cytotoxicity against human colchicine-resistant KB-C2 cells after 48 hrs by MTT assay. The note with it: KB-C2, 48 h.
Test [4] concerns K562. Put plainly: Cytotoxicity against human K562 cells after 6 hrs by MTT assay. The format is functional, cell-based. The settings on record: K562, 6 h.
The next test concerns MCF7. Kind of test: Cytotoxicity against human MCF7 cells after 48 hrs by MTT assay. The note with it: MCF7, 48 h.

A word on the IC50: it is the concentration needed to halve the response being measured. High values mean weaker potency in that assay, low ones greater potency in that assay.

Values after ≈ are worked out from the molar mass of the structure shown.

Turning to `COc1cccc2c1C(=O)c1c(O)c3c(c(O)c1C2=O)C[C@@](O)(C(C)=O)C[C@@H]3O[C@H]1C[C@H](N)[C@H](O)[C@H](C)O1` [DAUNORUBICIN], the concentration for half-maximal inhibition (IC50) came to 8.5 µg/mL (≈ 16.1 µM) with K562 [1]; 0.45 µg/mL (≈ 0.853 µM) with KB; 7.9 µg/mL (≈ 15 µM) in test [2]; 11.6 µg/mL (≈ 22 µM) in test [3]; 1.49 µg/mL (≈ 2.82 µM) in the test with K562 [4]; 0.033 µg/mL (≈ 0.0626 µM) with MCF7.
Turning to `C=C[C@@H]1CC[C@@H]2[C@]3(CC[C@]4(C)[C@@H]([C@H](C)CC/C=C(/C)C(=O)O)CC[C@@]24C)C[C@]13CCC(=O)O` [SINOCALYCANCHINENSIN A], the IC50 with K562 [1] came to 38.9 µg/mL (≈ 85.2 µM); with KB, 30.7 µg/mL (≈ 67.2 µM); in test [2], 30.4 µg/mL (≈ 66.6 µM); in test [3] it was 33.4 µg/mL (≈ 73.1 µM); in the test with K562 [4] it was 29.9 µg/mL (≈ 65.5 µM); with MCF7 it was 61.6 µg/mL (≈ 135 µM).
For the compound `C=C[C@@H]1CC[C@@H]2[C@]3(CC[C@]4(C)[C@@H]([C@H](C)CC/C=C(/C)C(=O)O)CC[C@@]24C)C[C@]13CCC(=O)OC` [SINOCALYCANCHINENSIN B], the half-inhibitory concentration (IC50) was determined as 17.6 µg/mL (≈ 37.4 µM) with K562 [1]; 20.9 µg/mL (≈ 44.4 µM) in the test with KB; 22.2 µg/mL (≈ 47.2 µM) in test [2]; 18.9 µg/mL (≈ 40.2 µM) in test [3]; 16.5 µg/mL (≈ 35.1 µM) with K562 [4]; 35.7 µg/mL (≈ 75.8 µM) in the test with MCF7.
For the compound `C=C[C@@H]1CC[C@@H]2[C@]3(CC[C@]4(C)[C@@H]([C@H](C)CC/C=C(/C)C(=O)O)CC[C@@]24C)C[C@]13CCC(=O)OC/C=C(\C)CCC[C@H](C)CCC[C@H](C)CCCC(C)C` [SINOCALYCANCHINENSIN C], the 50% inhibitory concentration (IC50) (with KB; in test [2]; in test [3]; in the test with K562 [4]; in the test on MCF7) was greater than 100 µg/mL each time.
With `C=C[C@@H]1CC[C@@H]2[C@]3(CC[C@]4(C)[C@@H]([C@H](C)[C@H]5CC=C(C)C(=O)O5)CC[C@@]24C)C[C@]13CCC(=O)O` [SINOCALYCANCHINENSIN D], the IC50 in the test on K562 [1] amounted to 7 µg/mL (≈ 15.4 µM); in the test with KB, 31.7 µg/mL (≈ 69.7 µM); in test [2] it was 26.4 µg/mL (≈ 58.1 µM); in test [3], 25.6 µg/mL (≈ 56.3 µM); in the test on K562 [4], 16.7 µg/mL (≈ 36.7 µM); with MCF7 it was 39.2 µg/mL (≈ 86.2 µM).
In the case of `C=C[C@@H]1CC[C@@H]2[C@]3(CC[C@]4(C)[C@@H]([C@H](C)[C@H]5CC=C(C)C(=O)O5)CC[C@@]24C)C[C@]13CCC(=O)OC` [SINOCALYCANCHINENSIN E], the IC50 in the test with K562 [1] was 20.5 µg/mL (≈ 43.7 µM); with KB it was 62.2 µg/mL (≈ 133 µM); in test [2], 49.2 µg/mL (≈ 105 µM); in test [3], 1.51 µg/mL (≈ 3.22 µM); with K562 [4], 22.4 µg/mL (≈ 47.8 µM); in the test on MCF7 it was greater than 100 µg/mL.
As to `COC(=O)[C@@H](C)[C@@H]1CC[C@@H]2[C@]3(CC[C@]4(C)[C@@H]([C@H](C)CC/C=C(/C)C(=O)O)CC[C@@]24C)C[C@]13CCOC(C)=O` [SINOCALYCANCHINENSIN F], the IC50 in the test on K562 [1] turned out to be 19.5 µg/mL (≈ 36.7 µM); with KB, 16.6 µg/mL (≈ 31.3 µM); in test [2], 21.7 µg/mL (≈ 40.9 µM); in test [3] it was 17.5 µg/mL (≈ 33 µM); in the test with K562 [4], 13.2 µg/mL (≈ 24.9 µM); with MCF7 it was 33.8 µg/mL (≈ 63.7 µM).
With `C/C(=C/CC[C@@H](C)[C@H]1CC[C@@]2(C)[C@@H]3CC[C@H]4[C@H](C)C(=O)CC[C@@]45C[C@@]35CC[C@]12C)C(=O)O` [SINOCALYCANCHINENSIN G], the IC50 came to 7.3 µg/mL (≈ 16.6 µM) in the test on K562 [1]; 19.9 µg/mL (≈ 45.2 µM) in the test with KB; 21.6 µg/mL (≈ 49 µM) in test [2]; 21.4 µg/mL (≈ 48.6 µM) in test [3]; 14.8 µg/mL (≈ 33.6 µM) in the test with K562 [4]; 23.7 µg/mL (≈ 53.8 µM) with MCF7.
In the case of `C/C(=C\CC[C@@H](C)[C@H]1CC[C@@]2(C)[C@@H]3CC[C@H]4[C@H](C)C(=O)CC[C@@]45C[C@@]35CC[C@]12C)C(=O)O` [SINOCALYCANCHINENSIN H], the half-inhibitory concentration (IC50) in the test on K562 [1] is 19.4 µg/mL (≈ 44 µM); in the test on KB it was 18.6 µg/mL (≈ 42.2 µM); in test [2], 18.8 µg/mL (≈ 42.7 µM); in test [3], 17.2 µg/mL (≈ 39 µM); in the test with K562 [4], 14.8 µg/mL (≈ 33.6 µM); in the test on MCF7 it was 18.6 µg/mL (≈ 42.2 µM).
